Earlier results in patent publication US20140039057A1, “Compositions” (Reckitt Benckiser Healthcare (UK) Limited, priority 2008, published 2014).

Conditions: phase II and phase III clinical studies

## CC(C(=O)O)c1ccc(-c2ccccc2)c(F)c1 (stereo not shown) [Flurbiprofen]
  efficacy in the treatment of sore throat: efficacious
